Data from patent US7241754B2, “2-Desmethyl ansamycin compounds” (priority 2003, dated 2007).

Assays:
Hsp90 = Hsp90 (Homo sapiens, UniProt P07900); test: Hsp90 filter binding assay
SKBr3 cells = test: Cytotoxicity against SKBr3 cells (CellTiter-Glo, 72 h); type: cell-based; conditions: Homo sapiens, SK-BR-3, 72 h, read-out: Cytotoxicity against SKBr3 Cells (IC50, μM)
Procedure: Cytotoxicity was determined with SKBr3 cells (ATCC HTB-30), a breast cancer cell line. […] Cells were plated into 96-well microtiter back plates at 4,000 cells per 50μL per well, overnight. Serial 10x dilutions of test compound (10 μM to 0.1 pM) in cell culture media were prepared with a Biomek 2000 apparatus, using the protocols of deeper-1000 μL-media and deeper-1000 μL-dilution. 50 μL of each dilution was added to wells containing cells. Each compound or control (medium only) was tested in duplicate. For each assay, the wells contained a final volume of 100 μL (50 μL of cells and 50 μL of compound dilution). […] CellTiter-Glo Luminescent Reagent (Promega #G7573) (100 μL) was added to each well. The well contents were mixed for 5 min and the plates were kept at room temperature for another 30 min. Luminescence was recorded using a Wallac VICTOR^2 Multilabel Counter (PerkinElmer) and IC50 values were determined using Kaleidagraph software (Synergy Software).

CCFT-CEM cells = test: Cytotoxicity against CCFT-CEM cells; conditions: read-out: IC50, cytotoxicity against CCFT-CEM cells

| Structure (SMILES) | Kd (Hsp90) | IC50 (SKBr3 cells) | IC50 (CCFT-CEM cells) |
| --- | --- | --- | --- |
| COC(=O)COc1cc2cc(c1)NC(=O)C=CCCC(OC)C(OC(N)=O)C(C)=CC(C)C(O)C(OC)CC(C)C2 (centres unmarked) [Compound 1-H] | 0.36 µM | > 5 µM |  |
| COC1CCC=CC(=O)Nc2cc(cc(OCC(N)=O)c2)CC(C)CC(OC)C(O)C(C)C=C(C)C1OC(N)=O (centres unmarked) [Compound 1-E] | 0.44 µM | > 5 µM |  |
| CO[C@H]1C[C@H](C)Cc2cc(O)cc(c2)NC(=O)CC(O)CC[C@H](OC)[C@@H](O)/C(C)=C/[C@H](C)[C@H]1O (some centres unmarked) [IV] | 17 µM | > 5 µM |  |
| COC1=C2C[C@@H](C)C[C@H](OC)[C@H](O)[C@@H](C)/C=C(\C)[C@H](OC(N)=O)[C@@H](OC)/C=C\C=C(/C)C(=O)NC(=CC1=O)C2=O [Geldanamycin, reference compound] |  | 0.023 µM |  |
| COC1CCC=CC(=O)Nc2cc(c(Br)c(O)c2Br)CC(C)CC(OC)C(O)C(C)C=C(C)C1OC(N)=O (centres unmarked) [Compound 1-M] | 5.9 µM | > 5 µM |  |
| COC1CCC=CC(=O)Nc2cc(cc(O)c2CN(C)C)CC(C)CC(OC)C(O)C(C)C=C(C)C1OC(N)=O (centres unmarked) [Compound 1-F] | 0.2 µM | 0.63 µM |  |
| COC1CCC=CC(=O)Nc2cc(cc(O)c2Br)CC(C)CC(OC)C(O)C(C)C=C(C)C1OC(N)=O (centres unmarked) [Compound 1-J] | 1.7 µM | > 5 µM |  |
| COC1CCC=CC(=O)Nc2cc(cc(OCCN(C)C)c2)CC(C)CC(OC)C(O)C(C)C=C(C)C1OC(N)=O (centres unmarked) [Compound 1-C] | 0.23 µM | > 10 µM |  |
| C=CCOc1cc2cc(c1)NC(=O)C=CCCC(OC)C(OC(N)=O)C(C)=CC(C)C(O)C(OC)CC(C)C2 (centres unmarked) [Compound 1-B] | 1 µM | > 5 µM |  |
| COC1CCC=CC(=O)Nc2cc(O)c(Br)c(c2)CC(C)CC(OC)C(O)C(C)C=C(C)C1OC(N)=O (centres unmarked) [Compound 1-K] | 0.14 µM | 0.8 µM |  |
| COC1CCC=CC(=O)Nc2cc(c(CN(C)CCN(C)C)c(O)c2Br)CC(C)CC(OC)C(O)C(C)C=C(C)C1OC(N)=O (centres unmarked) [Compound 1-N] | 31 µM | > 5 µM |  |
| CO[C@H]1C[C@H](C)Cc2cc(O)cc(c2)NC(=O)CC(O)CC[C@H](OC)[C@@H](OC(N)=O)/C(C)=C/[C@H](C)[C@H]1O (some centres unmarked) [III] | 1 µM | > 5 µM |  |
| COc1cc2cc(c1)NC(=O)C=CCCC(OC)C(OC(N)=O)C(C)=CC(C)C(O)C(OC)CC(C)C2 (centres unmarked) [Compound 1-D] | 0.51 µM | 6 µM |  |
| COC1CCC=CC(=O)Nc2cc(cc(O)c2CN2CCOCC2)CC(C)CC(OC)C(O)C(C)C=C(C)C1OC(N)=O (centres unmarked) [Compound 1-G] | 0.64 µM | > 5 µM |  |
| COC1CCC=CC(=O)Nc2cc(cc(OCC(=O)O)c2)CC(C)CC(OC)C(O)C(C)C=C(C)C1OC(N)=O (centres unmarked) [Compound 1-I] | 0.93 µM | > 5 µM |  |
| CO[C@H]1C[C@H](C)Cc2cc(O)cc(c2)NC(=O)/C=C/CC[C@H](OC)[C@@H](OC(N)=O)/C(C)=C/[C@H](C)[C@H]1O [Compound 1-A] | 0.017 µM | 0.85 µM | 2.5 µM |
